{TEG} = triethylene glycol spacer
Columns and labels:
[1] = test system: exon 2 of the human myostatin gene (huMSTN); test: Exon 2 skipping by RT-PCR in nucleofected human rhabdomyosarcoma (RD) cells; assay type: cell-based; details: for EC50: RD cells nucleofected with PMO at 10, 3, 1, 0.3 μM, overnight, concentration inducing 50% exon skipping; for exon skipping, in words: third series, FIG. 5, RD cells, based on the calculated EC50 values
Description: (§1) In vitro experiments were performed to investigate the ability of antisense oligonucleotides designed and prepared as described above to decrease the expression of exon 2 containing myostatin pre-mRNA. Both human rhabdomyosarcoma cells (RD cells; ATCC CCL-136) and primary human myoblasts were used in the experiments as noted. RD cells or primary human skeletal myoblasts were nucleofected with PMOs at 10, 3, 1 and 0.3 μM in SG or P3 nucleofector solution, respectively, and incubated overnight at 37° C. with 5% CO2. Total RNA was isolated from the cells and RT-PCR was performed using primers Myostatin EX1 Fwd (5′ […] SEQ ID NO: 48) and Myostatin EX3 Rev (5′ […] SEQ ID NO: 49). Amplified samples were analyzed using the LabChip Caliper to determine percent exon 2 skipping. EC50 values were determined using non-linear regression analysis in GraphPad Prism. EC50 values represent the concentration at which the test PMO induces 50% exon skipping.

[2] = test system: exon 2 of the human myostatin gene (huMSTN); test: Exon 2 skipping by RT-PCR in nucleofected primary human myoblasts; assay type: cell-based; details: primary human myoblasts nucleofected with PMO at 10, 3, 1, 0.3 μM, overnight, concentration inducing 50% exon skipping
Description: as §1

[3] = second series (FIG. 4), * = ambiguous fit on non-linear regression

huMSTN-SA2(02 + 23): PMO, 5′ TEG, 3′ H; targeting sequence ATCCACTTGCATTAGAAAATCAGCT (all phosphorodiamidate morpholino (PMO), 5' {TEG})
EC50 ([1]; third series (FIG. 5)): 1020 nM

huMSTN-SA2(−01 + 24): PMO, 5′ TEG, 3′ H; targeting sequence CATCCACTTGCATTAGAAAATCAGC (all phosphorodiamidate morpholino (PMO), 5' {TEG})
EC50 ([1]; third series (FIG. 5)): 551 nM
exon skipping, in words [1]: most effective

huMSTN-SA2(−01 + 25): PMO, 5′ TEG, 3′ H; targeting sequence CCATCCACTTGCATTAGAAAATCAGC (all phosphorodiamidate morpholino (PMO), 5' {TEG})
EC50 ([2]; first series (FIG. 3)): 2160 nM

huMSTN-SA2(−03 + 22): PMO, 5′ TEG, 3′ H; targeting sequence TCCACTTGCATTAGAAAATCAGCTA (all phosphorodiamidate morpholino (PMO), 5' {TEG})
EC50 ([1]; third series (FIG. 5)): 11900 nM

huMSTN-SA2(−04 + 21): PMO, 5′ TEG, 3′ H; targeting sequence CCACTTGCATTAGAAAATCAGCTAT (all phosphorodiamidate morpholino (PMO), 5' {TEG})
EC50 ([1]; third series (FIG. 5)): 365 nM
exon skipping, in words [1]: most effective

huMSTN-SA2(−05 + 20): PMO, 5′ TEG, 3′ H; targeting sequence CACTTGCATTAGAAAATCAGCTATA (all phosphorodiamidate morpholino (PMO), 5' {TEG})
EC50 ([2]; first series (FIG. 3)): 3860 nM
EC50 ([1]; third series (FIG. 5)): 214 nM
exon skipping, in words [1]: most effective

huMSTN-SA2(−07 + 18): PMO, 5′ TEG, 3′ H; targeting sequence CTTGCATTAGAAAATCAGCTATAAA (all phosphorodiamidate morpholino (PMO), 5' {TEG})
EC50 ([1]; third series (FIG. 5)): 881 nM

muhuD30-SD2(+30 + 1): sequence known in the prior art (US 2013/0085139), 5′ TEG, 3′ H; CAGCCCATCTTCTCCTGGTCCTGGGAAGGT (all phosphorodiamidate morpholino (PMO), 5' {TEG}) [reference compound]
EC50 ([2]; first series (FIG. 3)): 2700 nM
EC50 [1, 3]: 522 nM

muhuMSTN-SD2(+01 − 23): PMO, 5′ TEG, 3′ H; targeting sequence TGTTATTTTCAGTTATCACTTACC (all phosphorodiamidate morpholino (PMO), 5' {TEG})
EC50 ([2]; fourth series (FIG. 6)): 648 nM

muhuMSTN-SD2(+01 − 24): PMO, 5′ TEG, 3′ H; targeting sequence ATGTTATTTTCAGTTATCACTTACC (all phosphorodiamidate morpholino (PMO), 5' {TEG})
EC50 ([2]; fourth series (FIG. 6)): 642 nM

muhuMSTN-SD2(+02 − 18): PMO, 5′ TEG, 3′ H; targeting sequence TTTTCAGTTATCACTTACCA (all phosphorodiamidate morpholino (PMO), 5' {TEG})
EC50 ([2]; fourth series (FIG. 6)): 6210 nM

muhuMSTN-SD2(+02 − 19): PMO, 5′ TEG, 3′ H; targeting sequence ATTTTCAGTTATCACTTACCA (all phosphorodiamidate morpholino (PMO), 5' {TEG})
EC50 ([2]; fourth series (FIG. 6)): 3580 nM

muhuMSTN-SD2(+02 − 20): PMO, 5′ TEG, 3′ H; targeting sequence TATTTTCAGTTATCACTTACCA (all phosphorodiamidate morpholino (PMO), 5' {TEG})
EC50 ([2]; fourth series (FIG. 6)): 4060 nM

muhuMSTN-SD2(+02 − 21): PMO, 5′ TEG, 3′ H; targeting sequence TTATTTTCAGTTATCACTTACCA (all phosphorodiamidate morpholino (PMO), 5' {TEG})
EC50 ([2]; fourth series (FIG. 6)): 3990 nM

muhuMSTN-SD2(+02 − 22): PMO, 5′ TEG, 3′ H; targeting sequence GTTATTTTCAGTTATCACTTACCA (all phosphorodiamidate morpholino (PMO), 5' {TEG})
EC50 ([2]; fourth series (FIG. 6)): 687 nM

muhuMSTN-SD2(+02 − 23): PMO, 5′ TEG, 3′ H; targeting sequence TGTTATTTTCAGTTATCACTTACCA (all phosphorodiamidate morpholino (PMO), 5' {TEG})
EC50 ([2]; fourth series (FIG. 6)): 277 nM

muhuMSTN-SD2(+04 − 16): PMO, 5′ TEG, 3′ H; targeting sequence TTCAGTTATCACTTACCAGC (all phosphorodiamidate morpholino (PMO), 5' {TEG})
EC50 ([2]; fourth series (FIG. 6)): 3910 nM

muhuMSTN-SD2(+04 − 21): PMO, 5′ TEG, 3′ H; targeting sequence TTATTTTCAGTTATCACTTACCAGC (all phosphorodiamidate morpholino (PMO), 5' {TEG})
EC50 ([2]; first series (FIG. 3)): 1050 nM
EC50 [1, 3]: 0.92 nM

muhuMSTN-SD2(+05 − 16): PMO, 5′ TEG, 3′ H; targeting sequence TTCAGTTATCACTTACCAGCC (all phosphorodiamidate morpholino (PMO), 5' {TEG})
EC50 ([2]; fourth series (FIG. 6)): 1330 nM

muhuMSTN-SD2(+06 − 16): PMO, 5′ TEG, 3′ H; targeting sequence TTCAGTTATCACTTACCAGCCC (all phosphorodiamidate morpholino (PMO), 5' {TEG})
EC50 ([2]; fourth series (FIG. 6)): 829 nM

muhuMSTN-SD2(+07 − 16): PMO, 5′ TEG, 3′ H; targeting sequence TTCAGTTATCACTTACCAGCCCA (all phosphorodiamidate morpholino (PMO), 5' {TEG})
EC50 ([2]; fourth series (FIG. 6)): 612 nM

muhuMSTN-SD2(+07 − 18): PMO, 5′ TEG, 3′ H; targeting sequence TTTTCAGTTATCACTTACCAGCCCA (all phosphorodiamidate morpholino (PMO), 5' {TEG})
EC50 ([2]; first series (FIG. 3)): 662 nM
EC50 [1, 3]: 0.06 nM

muhuMSTN-SD2(+08 − 16): PMO, 5′ TEG, 3′ H; targeting sequence TTCAGTTATCACTTACCAGCCCAT (all phosphorodiamidate morpholino (PMO), 5' {TEG})
EC50 ([2]; fourth series (FIG. 6)): 622 nM

muhuMSTN-SD2(+09 − 11): PMO, 5′ TEG, 3′ H; targeting sequence TTATCACTTACCAGCCCATC (all phosphorodiamidate morpholino (PMO), 5' {TEG})
EC50 ([2]; fourth series (FIG. 6)): > 10000 nM

muhuMSTN-SD2(+09 − 12): PMO, 5′ TEG, 3′ H; targeting sequence GTTATCACTTACCAGCCCATC (all phosphorodiamidate morpholino (PMO), 5' {TEG})
EC50 ([2]; fourth series (FIG. 6)): 4350 nM

muhuMSTN-SD2(+09 − 13): PMO, 5′ TEG, 3′ H; targeting sequence AGTTATCACTTACCAGCCCATC (all phosphorodiamidate morpholino (PMO), 5' {TEG})
EC50 ([2]; fourth series (FIG. 6)): 2400 nM

muhuMSTN-SD2(+09 − 14): PMO, 5′ TEG, 3′ H; targeting sequence CAGTTATCACTTACCAGCCCATC (all phosphorodiamidate morpholino (PMO), 5' {TEG})
EC50 ([2]; fourth series (FIG. 6)): 1250 nM

muhuMSTN-SD2(+09 − 15): PMO, 5′ TEG, 3′ H; targeting sequence TCAGTTATCACTTACCAGCCCATC (all phosphorodiamidate morpholino (PMO), 5' {TEG})
EC50 ([2]; fourth series (FIG. 6)): 771 nM

muhuMSTN-SD2(+09 − 16): PMO, 5′ TEG, 3′ H; targeting sequence TTCAGTTATCACTTACCAGCCCATC (all phosphorodiamidate morpholino (PMO), 5' {TEG})
EC50 ([2]; fourth series (FIG. 6)): 549 nM

muhuMSTN-SD2(+10 − 15): PMO, 5′ TEG, 3′ H; targeting sequence TCAGTTATCACTTACCAGCCCATCT (all phosphorodiamidate morpholino (PMO), 5' {TEG})
EC50 ([2]; first series (FIG. 3)): 1070 nM
EC50 [1, 3]: 0.02 nM
EC50 ([1]; third series (FIG. 5)): 115 nM
exon skipping, in words [1]: most effective

muhuMSTN-SD2(+13 − 12): PMO, 5′ TEG, 3′ H; targeting sequence GTTATCACTTACCAGCCCATCTTCT (all phosphorodiamidate morpholino (PMO), 5' {TEG})
EC50 [1, 3]: 970 nM

muhuMSTN-SD2(+18 − 07): PMO, 5′ TEG, 3′ H; targeting sequence CACTTACCAGCCCATCTTCTCCTGG (all phosphorodiamidate morpholino (PMO), 5' {TEG})
EC50 ([2]; first series (FIG. 3)): 3880 nM
EC50 [1, 3]: 1290 nM

muhuMSTN-SD2(+19 − 06): PMO, 5′ TEG, 3′ H; targeting sequence ACTTACCAGCCCATCTTCTCCTGGT (splice-switching; all phosphorodiamidate morpholino (PMO), 5' {TEG})
EC50 [1, 3]: 1330 nM

muhuMSTN-SD2(+22 − 03): PMO, 5′ TEG, 3′ H; targeting sequence TACCAGCCCATCTTCTCCTGGTCCT (splice-switching; all phosphorodiamidate morpholino (PMO), 5' {TEG})
EC50 [1, 3]: 1410 nM

muhuMSTN-SD2(+24 − 01): PMO, 5′ TEG, 3′ H; targeting sequence CCAGCCCATCTTCTCCTGGTCCTGG (splice-switching; all phosphorodiamidate morpholino (PMO), 5' {TEG})
EC50 [1, 3]: 1410 nM

Reference: patent US11015200B2, “Antisense-induced exon exclusion in myostatin” (Sarepta Therapeutics, Inc., priority 2015, dated 2021)
